Measured values from the NIST ThermoML archive (doi:10.1016/j.jct.2005.03.016).
± gives the expanded uncertainty stated by the source.

Assay: xn = mol fraction of the nth substance listed
Details: Liquid, Vibrating tube method

CC1CCCCC1 [methylcyclohexane] + CCO
mass density [kg/m3]
Details | 100 kPa | 5000 kPa | 10000 kPa | 15000 kPa | 20000 kPa | 25000 kPa | 30000 kPa | 35000 kPa | 40000 kPa | 45000 kPa
283.15 K, x2 = 0 | 777.6 ± 0.3 | 781.4 ± 0.4 | 785.2 ± 0.4 | 788.7 ± 0.5 | 792.1 ± 0.5 | 795.3 ± 0.6 | 798.5 ± 0.6 | 801.5 ± 0.7 | 804.4 ± 0.7 | 807.3 ± 0.7
283.15 K, x2 = 0.052 | 777.6 ± 0.3 | 781.4 ± 0.4 | 785.1 ± 0.4 | 788.7 ± 0.5 | 792.1 ± 0.5 | 795.4 ± 0.5 | 798.5 ± 0.6 | 801.6 ± 0.6 | 804.5 ± 0.7 | 807.4 ± 0.7
283.15 K, x2 = 0.125 | 777.7 ± 0.3 | 781.6 ± 0.3 | 785.3 ± 0.4 | 788.9 ± 0.4 | 792.4 ± 0.5 | 795.6 ± 0.5 | 798.8 ± 0.6 | 801.9 ± 0.6 | 804.8 ± 0.7 | 807.7 ± 0.7
283.15 K, x2 = 0.25 | 778.5 ± 0.3 | 782.4 ± 0.3 | 786.2 ± 0.4 | 789.8 ± 0.4 | 793.2 ± 0.5 | 796.6 ± 0.5 | 799.7 ± 0.5 | 802.8 ± 0.6 | 805.8 ± 0.6 | 808.7 ± 0.7
283.15 K, x2 = 0.375 | 779.8 ± 0.2 | 783.6 ± 0.3 | 787.4 ± 0.3 | 791.1 ± 0.4 | 794.6 ± 0.4 | 797.9 ± 0.5 | 801.1 ± 0.5 | 804.2 ± 0.6 | 807.2 ± 0.6 | 810.1 ± 0.6
283.15 K, x2 = 0.5 | 781.4 ± 0.2 | 785.3 ± 0.3 | 789.1 ± 0.3 | 792.8 ± 0.4 | 796.3 ± 0.4 | 799.6 ± 0.4 | 802.8 ± 0.5 | 806 ± 0.5 | 809 ± 0.6 | 811.9 ± 0.6
283.15 K, x2 = 0.625 | 783.5 ± 0.2 | 787.4 ± 0.2 | 791.3 ± 0.3 | 794.9 ± 0.3 | 798.5 ± 0.4 | 801.8 ± 0.4 | 805.1 ± 0.5 | 808.2 ± 0.5 | 811.3 ± 0.6 | 814.2 ± 0.6
283.15 K, x2 = 0.75 | 786.4 ± 0.2 | 790.4 ± 0.2 | 794.3 ± 0.3 | 797.9 ± 0.3 | 801.5 ± 0.4 | 804.9 ± 0.4 | 808.1 ± 0.4 | 811.3 ± 0.5 | 814.3 ± 0.5 | 817.2 ± 0.6
283.15 K, x2 = 0.875 | 790.9 ± 0.2 | 794.8 ± 0.2 | 798.7 ± 0.3 | 802.4 ± 0.3 | 805.9 ± 0.3 | 809.3 ± 0.4 | 812.6 ± 0.4 | 815.8 ± 0.5 | 818.8 ± 0.5 | 821.8 ± 0.6
293.15 K, x2 = 0 | 769 ± 0.3 | 773 ± 0.4 | 777 ± 0.4 | 780.7 ± 0.5 | 784.3 ± 0.5 | 787.8 ± 0.6 | 791.1 ± 0.6 | 794.2 ± 0.7 | 797.3 ± 0.7 | 800.2 ± 0.8
293.15 K, x2 = 0.052 | 768.8 ± 0.3 | 772.8 ± 0.4 | 776.8 ± 0.4 | 780.6 ± 0.5 | 784.2 ± 0.5 | 787.6 ± 0.6 | 790.9 ± 0.6 | 794.1 ± 0.7 | 797.2 ± 0.7 | 800.2 ± 0.7
293.15 K, x2 = 0.125 | 768.9 ± 0.3 | 772.9 ± 0.3 | 776.9 ± 0.4 | 780.7 ± 0.4 | 784.4 ± 0.5 | 787.8 ± 0.5 | 791.2 ± 0.6 | 794.4 ± 0.6 | 797.5 ± 0.7 | 800.5 ± 0.7
293.15 K, x2 = 0.25 | 769.6 ± 0.3 | 773.7 ± 0.3 | 777.8 ± 0.4 | 781.6 ± 0.4 | 785.2 ± 0.5 | 788.7 ± 0.5 | 792.1 ± 0.6 | 795.3 ± 0.6 | 798.4 ± 0.6 | 801.5 ± 0.7
293.15 K, x2 = 0.375 | 770.8 ± 0.2 | 774.9 ± 0.3 | 779 ± 0.3 | 782.8 ± 0.4 | 786.5 ± 0.4 | 790 ± 0.5 | 793.4 ± 0.5 | 796.7 ± 0.6 | 799.8 ± 0.6 | 802.8 ± 0.7
293.15 K, x2 = 0.5 | 772.5 ± 0.2 | 776.6 ± 0.3 | 780.7 ± 0.3 | 784.5 ± 0.4 | 788.2 ± 0.4 | 791.8 ± 0.5 | 795.2 ± 0.5 | 798.4 ± 0.5 | 801.6 ± 0.6 | 804.6 ± 0.6
293.15 K, x2 = 0.625 | 774.6 ± 0.2 | 778.8 ± 0.2 | 782.9 ± 0.3 | 786.8 ± 0.3 | 790.5 ± 0.4 | 794 ± 0.4 | 797.4 ± 0.5 | 800.7 ± 0.5 | 803.9 ± 0.6 | 806.9 ± 0.6
293.15 K, x2 = 0.75 | 777.7 ± 0.2 | 781.8 ± 0.2 | 785.9 ± 0.3 | 789.9 ± 0.3 | 793.6 ± 0.4 | 797.1 ± 0.4 | 800.5 ± 0.5 | 803.8 ± 0.5 | 807 ± 0.5 | 810 ± 0.6
293.15 K, x2 = 0.875 | 782.2 ± 0.2 | 786.4 ± 0.2 | 790.5 ± 0.3 | 794.4 ± 0.3 | 798.1 ± 0.4 | 801.7 ± 0.4 | 805.1 ± 0.4 | 808.4 ± 0.5 | 811.6 ± 0.5 | 814.6 ± 0.6
303.15 K, x2 = 0 | 760.4 ± 0.3 | 764.7 ± 0.4 | 768.9 ± 0.4 | 772.8 ± 0.5 | 776.6 ± 0.5 | 780.2 ± 0.6 | 783.7 ± 0.6 | 787 ± 0.7 | 790.2 ± 0.7 | 793.3 ± 0.8
303.15 K, x2 = 0.052 | 760.1 ± 0.3 | 764.4 ± 0.4 | 768.6 ± 0.4 | 772.6 ± 0.5 | 776.5 ± 0.5 | 780.1 ± 0.6 | 783.6 ± 0.6 | 786.9 ± 0.7 | 790.1 ± 0.7 | 793.2 ± 0.8
303.15 K, x2 = 0.125 | 760.1 ± 0.3 | 764.4 ± 0.3 | 768.6 ± 0.4 | 772.7 ± 0.4 | 776.5 ± 0.5 | 780.2 ± 0.6 | 783.6 ± 0.6 | 787 ± 0.6 | 790.3 ± 0.7 | 793.4 ± 0.7
303.15 K, x2 = 0.25 | 760.7 ± 0.3 | 765.1 ± 0.3 | 769.4 ± 0.4 | 773.4 ± 0.4 | 777.3 ± 0.5 | 781 ± 0.5 | 784.5 ± 0.6 | 787.9 ± 0.6 | 791.2 ± 0.7 | 794.3 ± 0.7
303.15 K, x2 = 0.375 | 761.9 ± 0.2 | 766.3 ± 0.3 | 770.6 ± 0.3 | 774.7 ± 0.4 | 778.6 ± 0.4 | 782.3 ± 0.5 | 785.8 ± 0.5 | 789.2 ± 0.6 | 792.5 ± 0.6 | 795.7 ± 0.7
303.15 K, x2 = 0.5 | 763.6 ± 0.2 | 768 ± 0.3 | 772.3 ± 0.3 | 776.4 ± 0.4 | 780.3 ± 0.4 | 784 ± 0.5 | 787.6 ± 0.5 | 791 ± 0.6 | 794.3 ± 0.6 | 797.4 ± 0.7
303.15 K, x2 = 0.625 | 765.8 ± 0.2 | 770.2 ± 0.3 | 774.5 ± 0.3 | 778.6 ± 0.4 | 782.5 ± 0.4 | 786.3 ± 0.5 | 789.9 ± 0.5 | 793.3 ± 0.5 | 796.6 ± 0.6 | 799.8 ± 0.6
303.15 K, x2 = 0.75 | 768.9 ± 0.2 | 773.3 ± 0.2 | 777.7 ± 0.3 | 781.8 ± 0.3 | 785.7 ± 0.4 | 789.4 ± 0.4 | 793.1 ± 0.5 | 796.5 ± 0.5 | 799.8 ± 0.6 | 803 ± 0.6
303.15 K, x2 = 0.875 | 773.5 ± 0.2 | 777.9 ± 0.2 | 782.3 ± 0.3 | 786.4 ± 0.3 | 790.3 ± 0.4 | 794 ± 0.4 | 797.6 ± 0.5 | 801.1 ± 0.5 | 804.4 ± 0.5 | 807.6 ± 0.6
313.15 K, x2 = 0 | 751.7 ± 0.3 | 756.2 ± 0.4 | 760.7 ± 0.4 | 764.8 ± 0.5 | 768.8 ± 0.5 | 772.7 ± 0.6 | 776.3 ± 0.6 | 779.8 ± 0.7 | 783.1 ± 0.7 | 786.4 ± 0.8
313.15 K, x2 = 0.052 | 751.1 ± 0.3 | 755.7 ± 0.4 | 760.1 ± 0.4 | 764.4 ± 0.5 | 768.4 ± 0.5 | 772.2 ± 0.6 | 775.9 ± 0.6 | 779.4 ± 0.7 | 782.8 ± 0.7 | 786.1 ± 0.8
313.15 K, x2 = 0.125 | 751 ± 0.3 | 755.7 ± 0.3 | 760.2 ± 0.4 | 764.5 ± 0.5 | 768.5 ± 0.5 | 772.4 ± 0.6 | 776.1 ± 0.6 | 779.6 ± 0.7 | 783 ± 0.7 | 786.3 ± 0.8
313.15 K, x2 = 0.25 | 751.6 ± 0.3 | 756.3 ± 0.3 | 760.9 ± 0.4 | 765.2 ± 0.4 | 769.3 ± 0.5 | 773.2 ± 0.5 | 776.9 ± 0.6 | 780.5 ± 0.6 | 783.9 ± 0.7 | 787.2 ± 0.7
313.15 K, x2 = 0.375 | 752.7 ± 0.2 | 757.4 ± 0.3 | 762 ± 0.3 | 766.4 ± 0.4 | 770.5 ± 0.5 | 774.4 ± 0.5 | 778.1 ± 0.6 | 781.7 ± 0.6 | 785.2 ± 0.7 | 788.5 ± 0.7
313.15 K, x2 = 0.5 | 754.4 ± 0.2 | 759.1 ± 0.3 | 763.7 ± 0.3 | 768.1 ± 0.4 | 772.2 ± 0.4 | 776.1 ± 0.5 | 779.9 ± 0.5 | 783.5 ± 0.6 | 786.9 ± 0.6 | –
313.15 K, x2 = 0.625 | 756.7 ± 0.2 | 761.4 ± 0.3 | 766 ± 0.3 | 770.4 ± 0.4 | 774.5 ± 0.4 | 778.4 ± 0.5 | 782.2 ± 0.5 | 785.8 ± 0.6 | 789.3 ± 0.6 | –
313.15 K, x2 = 0.75 | 759.9 ± 0.2 | 764.6 ± 0.2 | 769.2 ± 0.3 | 773.6 ± 0.3 | 777.7 ± 0.4 | 781.6 ± 0.4 | 785.4 ± 0.5 | 789 ± 0.5 | 792.5 ± 0.6 | –
313.15 K, x2 = 0.875 | 764.7 ± 0.2 | 769.3 ± 0.2 | 773.9 ± 0.3 | 778.3 ± 0.3 | 782.4 ± 0.4 | 786.3 ± 0.4 | 790.1 ± 0.5 | 793.7 ± 0.5 | 797.1 ± 0.6 | –
